Measured values published in patent US20210198277A1, “AMINE-SUBSTITUTED ARYL OR HETEROARYL COMPOUNDS” (Epizyme, Inc., priority 2016, published 2021).

molecular target: T1, EHMT2 (Homo sapiens, UniProt Q96KQ7); test: MDA-MB-231 H3K9me2 in-cell Western assay (EHMT2 ICW); assay type: cell-based; settings: Table VII; read-out: EHMT2 ICW IC50
T1 construct: host or cells: MDA-MB-231
T1 sequence (Q96KQ7 1-1210): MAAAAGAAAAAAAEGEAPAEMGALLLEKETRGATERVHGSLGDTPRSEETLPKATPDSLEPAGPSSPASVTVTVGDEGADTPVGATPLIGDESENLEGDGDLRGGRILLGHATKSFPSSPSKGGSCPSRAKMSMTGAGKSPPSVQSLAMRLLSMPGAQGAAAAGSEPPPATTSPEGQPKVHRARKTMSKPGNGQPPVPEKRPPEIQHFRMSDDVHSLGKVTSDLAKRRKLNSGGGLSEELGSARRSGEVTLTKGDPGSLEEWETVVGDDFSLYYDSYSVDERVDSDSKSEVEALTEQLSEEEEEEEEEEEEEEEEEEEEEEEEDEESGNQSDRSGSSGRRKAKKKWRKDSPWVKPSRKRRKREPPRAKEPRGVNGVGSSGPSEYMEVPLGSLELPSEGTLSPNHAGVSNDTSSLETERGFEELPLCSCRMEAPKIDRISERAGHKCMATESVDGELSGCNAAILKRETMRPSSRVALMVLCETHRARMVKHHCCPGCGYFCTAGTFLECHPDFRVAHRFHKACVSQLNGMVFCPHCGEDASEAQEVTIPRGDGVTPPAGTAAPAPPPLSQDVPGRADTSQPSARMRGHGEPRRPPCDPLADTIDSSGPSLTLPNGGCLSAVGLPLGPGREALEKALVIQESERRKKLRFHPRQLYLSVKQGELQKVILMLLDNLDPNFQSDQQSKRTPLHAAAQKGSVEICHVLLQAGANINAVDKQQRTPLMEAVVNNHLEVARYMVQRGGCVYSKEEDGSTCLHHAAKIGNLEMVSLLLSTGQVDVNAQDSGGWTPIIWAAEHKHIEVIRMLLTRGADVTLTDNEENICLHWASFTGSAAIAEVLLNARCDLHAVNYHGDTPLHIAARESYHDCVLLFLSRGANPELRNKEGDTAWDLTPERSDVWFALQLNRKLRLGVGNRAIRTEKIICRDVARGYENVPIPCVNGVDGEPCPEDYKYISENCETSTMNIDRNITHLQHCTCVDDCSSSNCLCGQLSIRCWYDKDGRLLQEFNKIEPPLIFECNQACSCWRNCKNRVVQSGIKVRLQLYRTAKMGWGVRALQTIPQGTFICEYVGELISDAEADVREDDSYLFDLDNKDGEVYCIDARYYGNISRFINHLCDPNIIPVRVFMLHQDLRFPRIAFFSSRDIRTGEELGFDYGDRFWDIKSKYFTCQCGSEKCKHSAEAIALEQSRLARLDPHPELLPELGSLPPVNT
Procedure, shortened: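 IC50 values came from a variable-slope four-parameter fit on triplicate wells, using % inhibition from the 800/700 nm infrared signal ratio (anti-H3K9me2 versus DRAQ5 DNA stain). Before fixation and immunostaining, MDA-MB-231 cells, 3,000 per well, were exposed to compound for 48 h at 37 °C.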

IC50 | SMILES
100 to 1000 nM | CNC[C@H](C)NCc1cc(Nc2nc(C)cc(NC)n2)ccc1OC [Compound 1102]
100 to 1000 nM | CNc1cc(C)nc(Nc2ccc(OC)c(COCCN3CCCC3)c2)n1 [Compound 1104]
100 to 1000 nM | CNc1cc(C2CCOCC2)c2cc(OC)c(OC[C@H](O)CN3CCCC3)cc2n1 [Compound 1107]

More lines, now with the values behind:

SMILES | IC50
CNc1cc(C)nc(Nc2ccc(OC)c(CNCCN(C)C)c2)n1 [Compound 1101] | 100 to 1000 nM
CNC[C@@H](C)NCc1cc(Nc2nc(C)cc(NC)n2)ccc1OC [Compound 1103] | 1000 to 10000 nM
CNc1cc(C)nc(Nc2ccc(OC)c(COCCN(C)C)c2)n1 [Compound 1105] | 1000 to 10000 nM
CCNc1cc(C)nc(Nc2ccc(OC)c(OC[C@H](O)CN3CCCC3)c2)n1 [Compound 1106] | 100 to 1000 nM
